*1 amine or outer side, *2 acyl side, *3 side chain or, on linkers, in order; H or OH if unused. The star is where a group is joined. Fmoc = O=C(OCC1c2ccccc2-c2ccccc21)*; Glutaryl = O=C(CCCC(=O)[*:2])[*:1]

The text below walks through data of patent US7049289B1, “Labelled glutamine and lysine analogues” (Amersham PLC, priority 1998, dated 2006).

The target of assay [1] is T1, fibrin (in vitro human plasma clot) (Homo sapiens, UniProt P02671+P02675+P02679).
T1 construct: about 400 μl of human plasma containing the radiolabelled substrate; from tissue; host or cells: human plasma, clotted in vitro with added thrombin and calcium chloride
T1 sequence (P02671 20-644 isoform P02671-2 limits assumed): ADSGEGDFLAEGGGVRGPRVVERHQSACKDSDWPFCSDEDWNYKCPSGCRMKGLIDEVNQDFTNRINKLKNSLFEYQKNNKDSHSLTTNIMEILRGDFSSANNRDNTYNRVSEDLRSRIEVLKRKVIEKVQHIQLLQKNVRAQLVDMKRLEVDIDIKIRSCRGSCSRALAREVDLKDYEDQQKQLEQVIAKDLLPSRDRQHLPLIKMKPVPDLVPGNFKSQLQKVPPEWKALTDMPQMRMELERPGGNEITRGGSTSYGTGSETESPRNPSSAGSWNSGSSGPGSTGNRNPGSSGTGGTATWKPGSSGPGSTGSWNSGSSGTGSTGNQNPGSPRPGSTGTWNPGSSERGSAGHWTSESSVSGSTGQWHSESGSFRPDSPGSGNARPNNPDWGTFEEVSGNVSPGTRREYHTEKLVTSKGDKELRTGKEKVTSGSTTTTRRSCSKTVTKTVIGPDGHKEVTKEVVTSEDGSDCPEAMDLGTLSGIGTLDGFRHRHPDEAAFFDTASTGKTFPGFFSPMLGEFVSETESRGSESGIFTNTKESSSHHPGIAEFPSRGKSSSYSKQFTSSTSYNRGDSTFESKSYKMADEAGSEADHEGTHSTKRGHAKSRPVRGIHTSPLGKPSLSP
T1 sequence (P02675 45-491 limits assumed): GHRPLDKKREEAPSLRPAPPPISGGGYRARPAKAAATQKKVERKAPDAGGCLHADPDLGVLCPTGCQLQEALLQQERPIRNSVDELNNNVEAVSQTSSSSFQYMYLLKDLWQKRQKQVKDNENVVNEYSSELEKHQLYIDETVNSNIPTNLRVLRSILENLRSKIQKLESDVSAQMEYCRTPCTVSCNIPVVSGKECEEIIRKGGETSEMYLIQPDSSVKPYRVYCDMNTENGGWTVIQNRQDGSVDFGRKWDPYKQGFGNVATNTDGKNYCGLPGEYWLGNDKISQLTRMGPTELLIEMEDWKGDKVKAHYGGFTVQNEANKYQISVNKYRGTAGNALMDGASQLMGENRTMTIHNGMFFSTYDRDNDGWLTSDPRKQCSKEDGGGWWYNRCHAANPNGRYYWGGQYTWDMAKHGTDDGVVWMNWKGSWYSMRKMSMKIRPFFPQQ
T1 sequence (P02679 27-437 isoform P02679-2 limits assumed): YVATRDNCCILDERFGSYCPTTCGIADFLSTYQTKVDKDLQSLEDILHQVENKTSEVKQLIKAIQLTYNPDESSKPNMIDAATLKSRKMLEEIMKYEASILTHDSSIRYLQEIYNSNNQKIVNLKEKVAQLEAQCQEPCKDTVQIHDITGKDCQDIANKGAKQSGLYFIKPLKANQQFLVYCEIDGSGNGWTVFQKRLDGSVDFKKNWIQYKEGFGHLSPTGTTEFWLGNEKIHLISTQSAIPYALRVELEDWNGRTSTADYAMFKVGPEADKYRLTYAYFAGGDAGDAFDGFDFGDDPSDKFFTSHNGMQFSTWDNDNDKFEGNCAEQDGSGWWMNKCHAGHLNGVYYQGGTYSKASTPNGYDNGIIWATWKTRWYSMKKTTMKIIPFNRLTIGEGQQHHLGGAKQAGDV
Briefly: Incorporation into human plasma clots in vitro. To be noted: for % specific uptake: % retained (with thrombin) - % retained (no thrombin); for % retained (no thrombin): control without thrombin and calcium chloride (non-specific binding); for % retained (with thrombin): human plasma clot, 60 minutes, ca. 20° C. The format is biochemical. In outline:
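Human plasma containing radiolabelled substrate (typically 10 kBq/ml) clotted with thrombin in Tris-saline pH 7.5 with 4 mM CaCl2, 60 min at ca. 20 °C, then stopped with cold EDTA. Clots collected on nitrocellulose filters and washed; incorporation is filter-retained radioactivity fraction minus non-specific binding from thrombin/calcium-free controls.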

A short description of assay [2]: Incorporation into clots induced in a rat model (rat inferior vena cava model). It counts as in vivo, rat (Male Wistar). The settings on record: for % id/g (clot) / Rel. Conc. (cpm/g of clot by dose/g animal): sacrificed after 60 min. The essentials: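 Male Wistar rats (250–350 g) under 15% urethane anaesthesia, with the vena cava isolated by laparotomy. Compounds given 5 min (fresh clot) or 60 min (aged clot) after clot induction; clot, blood, lung and heart removed 60 min later, weighed and counted. Uptake expressed as cpm/g clot per dose/g animal and as clot-to-background tissue ratio.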

Where [3] appears, read: Aged Clots: injected 60 min post-induction.
Where [4] appears, read: Fresh Clots: injected 5 min post-induction.

For “Z-NQEQVSP(I-Y)TLLKG-Pn216 [^99mTc-Cmpd 24]”, in assay [1], the “% specific uptake” value amounted to 56.4%, the “% retained (no thrombin)” value is 0.4% and the “% retained (with thrombin)” value came to 56.8%. In assay [2] (Aged Clots), this substance displayed a Clot/blood of 15, a Clot/heart of 40, a Clot/liver of 37 and a Clot/lung of 20. For the same substance, in assay [2] (setting [3]), the “% id/g (clot)” value worked out at 4.1 ± 2.5 % id/g and the “Rel. Conc. (cpm/g of clot by dose/g animal)” value was 11.9 ± 8.0. Besides, in assay [2] (Fresh Clots), the Clot/blood is on record as 10, the Clot/heart came to 21, the Clot/liver is reported as 11 and the Clot/lung worked out at 10. Also, in assay [2] (setting [4]), the “% id/g (clot)” value is 4.0 ± 2.2 % id/g and the “Rel. Conc. (cpm/g of clot by dose/g animal)” value stood at 11.1 ± 6.7.

With “Ac-LGPGQSKVIG-Pn44 (also: 99mTc complex) [^99mTc-Cmpd 45]”, in assay [1], the “% specific uptake” value is recorded as 28.6%, the “% retained (no thrombin)” value is listed as 0.1% and the “% retained (with thrombin)” value is listed as 28.7%. In assay [2] (Aged Clots), this substance displayed a Clot/blood of 8, a Clot/heart of 11, a Clot/liver of 3 and a Clot/lung of 5. In addition, in assay [2] (setting [3]), the “% id/g (clot)” value is reported as 2.0 ± 0.8 % id/g and the “Rel. Conc. (cpm/g of clot by dose/g animal)” value is reported as 5.7 ± 2.3. Moreover, in assay [2] (Fresh Clots), the Clot/blood stood at 6, the Clot/heart is 10, the Clot/liver is 3 and the Clot/lung is 5. Also, in assay [2] (setting [4]), the “% id/g (clot)” value amounted to 2.0 ± 0.5 % id/g and the “Rel. Conc. (cpm/g of clot by dose/g animal)” value is listed as 5.5 ± 1.3.

“Ac-LEFDTQSKNILG-Pn216 (also: 99mTc complex) [^99mTc-Cmpd 47]”: in assay [1], the “% specific uptake” value was 49.8%, the “% retained (no thrombin)” value is 0.1% and the “% retained (with thrombin)” value stood at 49.9%. Besides, in assay [2] (Aged Clots), the Clot/blood was 1, the Clot/heart amounted to 46, the Clot/liver is given as 44 and the Clot/lung is 24. Further, in assay [2] (setting [3]), the “% id/g (clot)” value was found to be 0.5 ± 0.3 % id/g and the “Rel. Conc. (cpm/g of clot by dose/g animal)” value is recorded as 1.5 ± 0.8. Moreover, in assay [2] (Fresh Clots), the Clot/blood amounted to 0.8, the Clot/heart stood at 3, the Clot/liver is on record as 1 and the Clot/lung turned out to be 1. In assay [2] (setting [4]), the “% id/g (clot)” value was determined as 0.8 ± 0.7 % id/g and the “Rel. Conc. (cpm/g of clot by dose/g animal)” value is reported as 2.2 ± 2.0.

With “Ac-(D-N)QEQVSP(D-Y)TLL(D-K)G-Pn216 [^99mTc-Cmpd 32]”, in assay [1], the “% specific uptake” value is recorded as 19.8%, the “% retained (no thrombin)” value was 0.4% and the “% retained (with thrombin)” value came out at 20.2%. In assay [2] (Aged Clots), this substance yielded a Clot/blood of 3, a Clot/heart of 43, a Clot/liver of 21 and a Clot/lung of 15. Further, in assay [2] (setting [3]), the “% id/g (clot)” value was found to be 0.7 ± 0.1 % id/g and the “Rel. Conc. (cpm/g of clot by dose/g animal)” value is reported as 2.0 ± 0.4. In assay [2] (Fresh Clots), the Clot/blood is 10, the Clot/heart stood at 26, the Clot/liver is given as 27 and the Clot/lung worked out at 11. Also, in assay [2] (setting [4]), the “% id/g (clot)” value came to 1.7 ± 0.7 % id/g and the “Rel. Conc. (cpm/g of clot by dose/g animal)” value came to 4.6 ± 1.9.

With “NQEQVSPYTLLK [^123I-Cmpd 1, reference compound]”, in assay [1], the “% specific uptake” value came to 12.6%, the “% retained (no thrombin)” value is 2.0% and the “% retained (with thrombin)” value came out at 14.6%. Further, the “RC (in vivo clot uptake)” value in assay [2] is listed as 1.5. The same substance registered a Clot/blood in assay [2] (Fresh Clots) of 1. Also, in assay [2] (setting [4]), the “% id/g (clot)” value amounted to 0.5 ± 0.1 % id/g and the “Rel. Conc. (cpm/g of clot by dose/g animal)” value amounted to 1.6 ± 0.4.

In the case of “Fmoc-NQEQVSPYTLLKG-Pn216 (also: 99mTc complex) [^99mTc-Cmpd 9]”, in assay [1], the “% specific uptake” value is 42.8%, the “% retained (no thrombin)” value is given as 2.7% and the “% retained (with thrombin)” value turned out to be 44.5%. In assay [2] (Aged Clots), this substance gave a Clot/blood of 8, a Clot/heart of 21, a Clot/liver of 6 and a Clot/lung of 7. Also, in assay [2] (setting [3]), the “% id/g (clot)” value turned out to be 3.7 ± 0.4 % id/g and the “Rel. Conc. (cpm/g of clot by dose/g animal)” value is 11.4 ± 1.5. In addition, in assay [2] (Fresh Clots), the Clot/blood amounted to 13, the Clot/heart is 32, the Clot/liver is 13 and the Clot/lung was 12. In addition, in assay [2] (setting [4]), the “% id/g (clot)” value is 8.8 ± 3.6 % id/g and the “Rel. Conc. (cpm/g of clot by dose/g animal)” value worked out at 24.8 ± 9.6.

Turning to “Ac-NQEQVSPYTLLKG-(PEG)10k-Pn216 (Ac-NQEQVSPYTLLKG-{PEG 10k-Pn216}; also: 99mTc complex) [^99mTc-Cmpd 41]”, in assay [1], the “% specific uptake” value was 37.4%, the “% retained (no thrombin)” value came to 7.1% and the “% retained (with thrombin)” value turned out to be 44.5%. Moreover, in assay [2] (Aged Clots), the Clot/blood is listed as 1, the Clot/heart amounted to 13, the Clot/liver turned out to be 4 and the Clot/lung is reported as 6. Besides, in assay [2] (setting [3]), the “% id/g (clot)” value turned out to be 0.4 ± 0.1 % id/g and the “Rel. Conc. (cpm/g of clot by dose/g animal)” value was determined as 1.1 ± 0.3. In addition, in assay [2] (Fresh Clots), the Clot/blood is 3, the Clot/heart was determined as 6, the Clot/liver came to 8 and the Clot/lung came to 4. Besides, in assay [2] (setting [4]), the “% id/g (clot)” value is given as 0.7 ± 0.1 % id/g and the “Rel. Conc. (cpm/g of clot by dose/g animal)” value was found to be 2.2 ± 0.3.

Consider “Pn44-CO(CH2)3CO-NQEQVSPYTLLKG-NH2 ({Pn44-Glutaryl}-NQEQVSPYTLLKG-NH2; also: 99mTc complex) [^99mTc-Cmpd 38]”, for which, in assay [1], the “% specific uptake” value worked out at 20.3%, the “% retained (no thrombin)” value was 0.7% and the “% retained (with thrombin)” value turned out to be 21.0%. In assay [2] (Aged Clots), this substance returned a Clot/blood of 3, a Clot/heart of 1, a Clot/liver of 2 and a Clot/lung of 0.5. For the same substance, in assay [2] (setting [3]), the “% id/g (clot)” value is listed as 0.8 ± 0.3 % id/g and the “Rel. Conc. (cpm/g of clot by dose/g animal)” value is 2.4 ± 0.7. In assay [2] (Fresh Clots), this substance had a Clot/blood of 5, a Clot/heart of 15, a Clot/liver of 3 and a Clot/lung of 6. Also, in assay [2] (setting [4]), the “% id/g (clot)” value is 1.9 ± 0.5 % id/g and the “Rel. Conc. (cpm/g of clot by dose/g animal)” value came out at 5.4 ± 1.5.

Turning to “Ac-NQEQVSP(D-Y)TLL(D-K)G-Pn216 [^99mTc-Cmpd 29]”, in assay [1], the “% specific uptake” value is on record as 21.0%, the “% retained (no thrombin)” value was determined as 0.1% and the “% retained (with thrombin)” value is reported as 21.1%. Also, in assay [2] (Aged Clots), the Clot/blood came out at 11, the Clot/heart was 67, the Clot/liver is listed as 29 and the Clot/lung came out at 30. Further, in assay [2] (setting [3]), the “% id/g (clot)” value was 3.8 ± 0.4 % id/g and the “Rel. Conc. (cpm/g of clot by dose/g animal)” value was 10.0 ± 1.7. In assay [2] (Fresh Clots), the Clot/blood amounted to 14, the Clot/heart is given as 44, the Clot/liver is 44 and the Clot/lung is 20. In assay [2] (setting [4]), the “% id/g (clot)” value amounted to 4.7 ± 1.9 % id/g and the “Rel. Conc. (cpm/g of clot by dose/g animal)” value is 13.0 ± 4.9.
